Read-outs that look alike come from different tables or passages of the source.
Experiments:
HCT116 = experiment: In Vitro cytotoxicity measured by the cell colony formation assay; assay type: cell-based, human; conditions: Homo sapiens, HCT-116; read-out: IN VITRO ID 50 HCT116
Procedure, shortened: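 Four hundred cells per dish in McCoy's 5a medium with 10% FBS were allowed to attach for 5 h at 37 °C. They were then exposed to compound for 72 h at 37 °C, added as a 10× stock made fresh in medium. After HBSS rinsing and refeeding, colonies were counted after 7 days.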

VM46 colon carcinoma = test system: VM46 colon carcinoma
Method: Dosing was initiated on Day 1. […] Taxotere was given i.v. at a dose of 70 mg/kg on a qd x 1 schedule.

A375 melanoma = test system: A375 melanoma
Method: Dosing was initiated on Day 1. […] Taxotere was given i.v. on a qd x 1 schedule at a dose of 70 mg/kg. […] The study was terminated on Day 60. Treatment groups are detailed in Table 9.

SKMES lung carcinoma = experiment: In vivo evaluation of oral administration against SKMES human lung carcinoma xenograft (Example 21)
Method: Female Nu/Nu mice (6-8 weeks of age; implanted with 1 mm^3 SKMES lung carcinoma fragments in the flank) were sorted into treatment groups of six mice each. […] Treatments were administered as a single oral bolus on Day 1, and the study was terminated on Day 60.
A complete response is obtained if the tumor is not palpable at the end of the study.
The total response rate is defined as the percentage of evaluable animals (excluding deaths due to procedure or toxicity) in a group that experience complete or partial responses at the termination of the study.

[1] = test system: Panc-1 pancreatic carcinoma; experiment: In vivo evaluation against Panc-1 human pancreatic carcinoma (Example 17)
A2780 ovarian carcinoma = test system: A2780 ovarian carcinoma
Method: Dosing was initiated on Day 1. […] Taxotere was given i.v. on a qd x 1 schedule at a dose of 70 mg/kg. […] The study was terminated on Day 60. Treatment groups are detailed in Table 7.

MX-1 carcinoma = test system: MX-1 carcinoma
Procedure, shortened: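 Mice dosed with a single i.v. bolus (qd x 1) at each compound's MTD, formulated in 5% ethanol, 5% Cremophor, 90% isotonic saline. Study ended Day 60; complete response = tumor not palpable at study end.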

DU145 prostate carcinoma = test system: DU145 prostate carcinoma
From the text: Dosing was initiated on Day 1. […] Treatment groups are detailed in Table 5.

[2] = VM46, i.v. qd x 1, six mice per group
[3] = number of mice, i.v. qd x 1, mg/kg: Taxol 24, 0499 77, 0503 72.6, 0670 123.1, 0706 107.6, 0838 72.6, 0854 46.6, 0983 67.4, Taxotere 70, 6 mice/group, Day 64
[4] = number of mice, i.v. qd x 1 at estimated MTD (Taxol 24 mg/kg, Taxotere 70 mg/kg), 6 mice/group (Taxotere 7), Day 60
[5] = number of mice, single oral bolus Day 1, mg/kg: Taxol 40, 0687 228, 0503 73, 6 mice/group, Day 60
[6] = number of mice, i.v. qd x 1, mg/kg: Taxol 36, 0499 77, 0503 72.6, 0670 123.1, 0706 107.6, 0838 72.6, 0854 76.9, 6 mice/group, Day 60
[7] = number of mice, i.v. qd x 1 at estimated MTD (Taxol 24 mg/kg, Taxotere 70 mg/kg, 0983 72.6 mg/kg), 5 mice/group (Taxotere 6), Day 60
[8] = number of 5 mice, i.v. qd x 1 at estimated MTD (Taxol 24 mg/kg split), Day 91

CCC(=O)O[C@H]1C(=O)[C@@]2(C)[C@H]([C@H](OC(=O)c3ccccc3)[C@]3(O)C[C@H](OC(=O)[C@H](O)[C@@H](NC(=O)OC(C)(C)C)c4ccccn4)C(C)=C1C3(C)C)[C@]1(OC(C)=O)CO[C@@H]1C[C@@H]2O [Compound 0503]
IC50 (HCT116): < 1 nM
tolerability (VM46 colon carcinoma; VM46, i.v. qd x 1): well-tolerated
partial responses (VM46 colon carcinoma; VM46, i.v. qd x 1 (compounds estimated MTD; Taxol 24 mg/kg split), six mice per group, ended Day 64): four
Stable Disease (VM46 colon carcinoma; [2]): two
Toxic Deaths (VM46 colon carcinoma; [2]): no toxic deaths
response rate (VM46 colon carcinoma; VM46, i.v. qd x 1 at estimated MTD): 66.7%
Toxic Deaths (VM46 colon carcinoma; number of mice, i.v. qd x 1, mg/kg: Taxol 24, 0499 77, 0503 72.6, 0670 123.1, 0706 107.6, 0838 72.6, 0854 46.6, 0983 67.4, Taxotere 70, 6 mice/group): 0
Complete Response (VM46 colon carcinoma; [3]): 0
Partial Response (VM46 colon carcinoma; [3]): 4
Stable Disease (VM46 colon carcinoma; [3]): 1
Survivors (VM46 colon carcinoma; [3]): 5
Mean Score (VM46 colon carcinoma; tumor scoring system, i.v. qd x 1, mg/kg: Taxol 24, 0499 77, 0503 72.6, 0670 123.1, 0706 107.6, 0838 72.6, 0854 46.6, 0983 67.4, Taxotere 70, 6 mice/group): 7.3 ± 1.2
survival extension compared to Group 1 controls (A375 melanoma; A375, i.v. qd x 1): 95%
Complete Response (A375 melanoma; A375, i.v. qd x 1, six mice per group): 1
MDS (n) (A375 melanoma; mean days of survival until neoplasm reached 2.0 g, i.v. qd x 1 at estimated MTD (Taxol 24 mg/kg, Taxotere 70 mg/kg), 6 mice/group (Taxotere 7), terminated Day 60): 28.1 ± 5.8 (3) days
Toxic Deaths (A375 melanoma; number of mice, i.v. qd x 1 at estimated MTD (Taxol 24 mg/kg, Taxotere 70 mg/kg), 6 mice/group (Taxotere 7)): 2
Complete Response (A375 melanoma; [4]): 1
Partial Response (A375 melanoma; [4]): 0
Stable Disease (A375 melanoma; [4]): 0
Survivors (A375 melanoma; [4]): 1
Mean Score (A375 melanoma; tumor scoring system, i.v. qd x 1 at estimated MTD (Taxol 24 mg/kg, Taxotere 70 mg/kg), 6 mice/group (Taxotere 7)): 2.8 ± 1.5
complete responses (SKMES lung carcinoma; SKMES, 0503 73 mg/kg single oral bolus, six mice): three
% Total Response (SKMES lung carcinoma; complete or partial responses among evaluable animals, single oral bolus Day 1, mg/kg: Taxol 40, 0687 228, 0503 73): 50.0%
MDS (n) (SKMES lung carcinoma; mean days of survival until neoplasm reached 2.0 g, single oral bolus Day 1, mg/kg: Taxol 40, 0687 228, 0503 73, 6 mice/group, terminated Day 60): 29.8 ± 3.6 (3) days
Toxic Deaths (SKMES lung carcinoma; number of mice, single oral bolus Day 1, mg/kg: Taxol 40, 0687 228, 0503 73, 6 mice/group): 0
Complete Response (SKMES lung carcinoma; [5]): 3
Partial Response (SKMES lung carcinoma; [5]): 0
Stable Disease (SKMES lung carcinoma; [5]): 0
Survivors (SKMES lung carcinoma; [5]): 3
MDS ([1]; Panc-1 (Example 17), i.v. qd x 1 (compounds estimated MTD; Taxol 36 mg/kg split), days until tumor 1.5 g, ended Day 60): 47 to 56 days
Stable Disease ([1]; Panc-1 (Example 17), i.v. qd x 1, six mice per group): three
MDS (n) ([1]; mean days of survival until neoplasm reached 1.5 g, i.v. qd x 1, mg/kg: Taxol 36, 0499 77, 0503 72.6, 0670 123.1, 0706 107.6, 0838 72.6, 0854 76.9, 6 mice/group, terminated Day 60): 52.5 ± 2.1 (3) days
Toxic Deaths ([1]; number of mice, i.v. qd x 1, mg/kg: Taxol 36, 0499 77, 0503 72.6, 0670 123.1, 0706 107.6, 0838 72.6, 0854 76.9, 6 mice/group): 0
Complete Response [1, 6]: 0
Partial Response [1, 6]: 0
Stable Disease [1, 6]: 3
Survivors [1, 6]: 3
Mean Score ([1]; tumor scoring system, i.v. qd x 1, mg/kg: Taxol 36, 0499 77, 0503 72.6, 0670 123.1, 0706 107.6, 0838 72.6, 0854 76.9, 6 mice/group): 3.6 ± 0.4
antitumor activity (A2780 ovarian carcinoma; A2780, i.v. qd x 1): did not cause any complete responses, partial responses, or cases of stable disease
MDS (n) (A2780 ovarian carcinoma; mean days of survival until neoplasm reached 2.0 g, i.v. qd x 1 at estimated MTD (Taxol 24 mg/kg, Taxotere 70 mg/kg, 0983 72.6 mg/kg), 5 mice/group (Taxotere 6), terminated Day 60): 32.4 ± 4.7 (5) days
Toxic Deaths (A2780 ovarian carcinoma; number of mice, i.v. qd x 1 at estimated MTD (Taxol 24 mg/kg, Taxotere 70 mg/kg, 0983 72.6 mg/kg), 5 mice/group (Taxotere 6)): 0
Complete Response (A2780 ovarian carcinoma; [7]): 0
Partial Respons (A2780 ovarian carcinoma; [7]): 0
Stable Disease (A2780 ovarian carcinoma; [7]): 0
Survivors (A2780 ovarian carcinoma; [7]): 0
Mean Score (A2780 ovarian carcinoma; tumor scoring system, i.v. qd x 1 at estimated MTD (Taxol 24 mg/kg, Taxotere 70 mg/kg, 0983 72.6 mg/kg), 5 mice/group (Taxotere 6)): 2.8 ± 0.2
treated animals with durable complete responses and partial responses (MX-1 carcinoma; MX-1, single i.v. MTD): 100%
Mean Score (MX-1 carcinoma; i.v. qd x 1 at MTD, 6 mice/group, Day 60, doses as in E17): 9.7 ± 0.2
Stable Disease (MX-1 carcinoma; number of 6 mice, tumor did not reach 2.0 g by end of study, i.v. qd x 1 at MTD, Day 60, doses as in E17): 0
Complete Response (MX-1 carcinoma; number of 6 mice, tumor not palpable at end of study, i.v. qd x 1 at MTD, Day 60, doses as in E17): 4
Partial Response (MX-1 carcinoma; number of 6 mice, tumor smaller than on Day 1, i.v. qd x 1 at MTD, Day 60, doses as in E17): 2
Survivors (MX-1 carcinoma; number of 6 mice, i.v. qd x 1 at MTD, Day 60, doses as in E17): 6
Toxic Deaths (MX-1 carcinoma; number of 6 mice, i.v. qd x 1 at MTD, Day 60, mg/kg: Taxol 36 (split dose), 0503 72.6, 0536 49, 0663 159, 0670 123, 0687 159, 0706 108, 0908 159, 0947 76.9, 0951 72.6, 0983 67.4, 0999 49, 1003 49, 1011 108): 0
total response rate (DU145 prostate carcinoma; DU145, i.v. qd x 1 at estimated MTD, five mice per group): at least 50%
Mean Score (DU145 prostate carcinoma; i.v. qd x 1 at estimated MTD (Taxol 24 mg/kg split), 5 mice/group, Day 91): 6.2 ± 1.9
Stable Disease (DU145 prostate carcinoma; number of 5 mice, tumor did not reach 1.5 g by end of study, i.v. qd x 1 at estimated MTD (Taxol 24 mg/kg split), Day 91): 2
Toxic Deaths (DU145 prostate carcinoma; number of 5 mice, i.v. qd x 1 at estimated MTD (Taxol 24 mg/kg as two split doses), Day 91): 1
Complete Response (DU145 prostate carcinoma; [8]): 2
Partial Response (DU145 prostate carcinoma; [8]): 0
Survivors (DU145 prostate carcinoma; [8]): 4
